In one data set the test system is P388 Leukemia. The experiment in a line: Minimum effective dose in P388 tumor bearing mice. The settings on record: for therapeutic index MTD/MED: MTD in normal BDF1 mice / MED in P388 tumor bearing mice; for MED (minimum effective dose), dose giving 45% increase in life span over control: ip once on days 1, 5, and 9, from plotted log-dose response data. In kind it is in vivo. The source says: ^a Drugs administered ip once on days 1, 5, and 9 starting 1 day afte
tumor implantation. Determinations were made from analysis of plotted
logdose response data. ^b MED (minimum effective dose) is the dose
(milligram/killogram) providing an increase in life span of 45% over

Data set [1] deals with human colon carcinoma HT-29 cell line. The experiment in a line: Cell viability by soft agar cloning. In kind it is cell-based. The settings on record: 2 h treatment at 37° C., from plot of concentration vs colony formation. The protocol:
Furthermore, the activity of the analogues against a human colon carcinoma HT-29 cell line in culture was evaluated. After the cells were treated for 2 h with 0.01-10.0 uM of the drugs at 37° C., the cells were washed with ice-cold PBS (phosphate buffered saline), and the cell viability was assessed by soft agar cloning. Cells viability was expressed as the percentage of colonies from the drug-treated cells relative to control cells after correcting for the cloning efficiency, which ranged from 60% to 80%.

For another data set, the system named is P388 cells. The experiment in a line: Inhibition of nucleic acid synthesis in P388 cells in vitro. The data set is classed as cell-based, murine. The source says:
(§1) In addition to the P388 cells, this inhibitory activity in human carcinoma HT-29 grown in tissue culture has been also examined. The values of the drug concentration producing 50% inhibition of the incorporation of [^3 H]-thymidine and [^14 C] uridine into nucleic acid macromolecules are presented in Table V. These values are taken as estimates of the inhibition of DNA and RNA synthesis. […] Furthermore, the inhibitory activities of these analogues are three-to fivefold higher than AMD; the order of potency of the analogues for their inhibition of DNA synthesis is:
(§2) DNA and RNA synthesis in P388 and HT-29 cells lines was monitored in the presence of drugs, and the rates of inhibition of their synthesis were estimated from the amounts of [2-^14 C]-uridine and [^3 H]-thymidine into RNA and DNA, respectively, according to the methods described previously.
(§3) ^a Human colon carcinoma in culture, IC50, drug concentration
(§4) producing a 50% inhibition of incorporation of precursor [^3 H]
(§5) thymidine into DNA and [^14 C] uridine into RNA in the cell lines,
(§6) isolated as acid preciptable materials. Data are average of replicate

Data set [2] relates to P388/S (adriamycin sensitive) leukemia. The experiment in a line: Antitumor activity in vivo, P388/S leukemia. More on the design: species or system mice. To be noted: for tumor free survivors/total on day 60: P388/S, at optimal dose, ip days 1, 5, 9; for effectiveness relative to AMD with respect to %ILS and long-time survivors: P388 lymphocytic leukemia in mice. The protocol: The analogues were tested for their antitumor activities in P388 lymphocytic leukemia in male BDF1 mice.
^a Male CDF1 mic inoculated ip: 10^6 cells inoculum, day 0.
Drugs administered in 10% dimethyl sulfoxidesaline on days 1, 5, and 9. %
ILS = percent increase in life span. Fractions in parentheses = tumor fre
survivors/total on day 60^b. P388/S (adriamycin sensitive) and
P388/ADR (adriamycin resistant) tumors were evaluated in the same
experiment with agent listed.

In data set [3] the test system is supercoiled closed-circular pBR322 DNA. The experiment in a line: Cleavage of closed circular pBR322 DNA. The data set is classed as biochemical. To be noted: for Percentage of closed circular pBR322 DNA cleaved: 20° C., 1 h, Na2S2O4, FeCl2. The protocol: The cleavage of DNA was followed by monitoring of the conversion of supercoiled closed-circular pBR322 DNA to open-circular DNA (analyzed by agarose gel electrophoresis and quantitated by staining with 0.5 ug/mL of ethidium bromide for 30 min and densitometry; (Table II). SAD and RAD show strong DNA-cleaving ability in the presence of sodium hydrosulfite and ferrous chloride. Presumably, sodium hydrosulfite acts as a reducing agent and regenerates Fe(II) from Fe(III) to produce a continuous source of the active metal ion. When the DNA-cleaving reaction with the analogues was performed at 20° C., the ratio of cleaved DNA (open circular form DNA versus closed circular DNA) was almost maximum within 1 h. […] Cleavage of DNA by the analogues is aided by the actinomycin chromopeptide moiety, which acts as a site-specific binder to DNA, and is effected by the aminoquinone function which is chelated to the ferrous ion during the process, and this is the likely candidate which generates the radical species.
Plasmid DNA pBR322 (0.5 ug) was dissolved in /8 μL of a reaction buffer (5 mM […], 10 mM Tris-HCl). To this solution, 1 μL of the 10 mM aqueous solution of the agent containing 1 mM FeCl2 was added. The mixture was incubated for 0.5-2 h at 20° or 37° C. Then, the incubation mixture was mixed with 10 uL of sample loading buffer (50% glycerin in 2 X Boyer's buffer containing 0.01% bromophenol blue). Finally, 5 uL of the mixture was analyzed by 0.7% agarose gel electrophoresis (120 V, Boyer's buffer; the migration distance of bromophenol blue was 5.0 cm). The gel was stained with […] of ethidium bromide and then quantitated by densitometry.
^a Ten microliters of 200 u M pBR322 DNA nucelotides in UM 10 mM
TrisHCl (pH 7.8) and 50 mM NaCl, containing 4 mM Na2 --S2
O4 and 100 μM FeCl2, was incubated with drug concentration a
20° C. for 1 h; the reaction mixture was kept saturated with air
throughout the incubation period.
^b Percentage of DNA was calculated from the amounts of openand
closedcir- cular DNA in the incubation mixture.

Data set [4] relates to human colon carcinoma HT-29. The experiment in a line: Inhibition of nucleic acid synthesis in HT-29 cells in vitro. To be noted: 2-h exposure. The data set is classed as cell-based.
Excerpt: as §1, §2
In brief, for HT-29 colon carcinoma monolayer cells, 10^4 cells in each of five wells per concentration, were incubated with radiolabelec nucleosides ([…] each) for the last hour of a 2-h drug exposure, following which the cells were aspirated and washed with buffered medium. Cells were trypsinized and counted in the Coulter counter. The cell suspensions were then precipitated onto glass fiber filter discs (Whatman 934H), with 10% trichloracetic acid and twice with 95% ethanol and dried, and the incorporation of radionucleotides was estimated.
In addition, to investigate the cross contamination of radioactivity from [2^14 C] uridine, the cells were lysed with ice-cold 1% Triton X for 2.5 min. Macromolecules were precipitated with the addition of 10% perchloric acid (5% in the medium) and centrifuged; the pellet in 1% NaCl was treated with an equal volume of phenol reagent, the emulsion was centrifuged at 10000 g for 30 min at 4° C., and the separated layer was adjusted to 1% NaCl and treated with an equal volume of 2-ethoxyethanol to precipitate the nucleic acids. The precipitate was washed with 75% ethanol and dissolved in an aqueous solution containing 2% sodium acetate and 1.5% NaCl. An aliquot was used for estimation of the total radionucleotide incorporation. Ribonuclease, previously heated to 80° C. for 10 min to destroy deoxyribonuclease activity, was added, and the mixture was incubated at 37° C. for 30 min.
as §3, §4, §5, §6

Setting [5] is: [3H]thymidine incorporation, read-out: IC50, DNA synth.
[6] abbreviates: [14C]uridine incorporation, read-out: IC50, RNA synth.

Like-named read-outs stand apart in the source and are kept apart here. *1 amine or outer side, *2 acyl side, *3 side chain or, on linkers, in order; H or OH if unused. Where a SMILES comes first, the peptide text is derived from it. Bridges are numbered along the chain shown (N, C = ends). Roman numbers before positions name the chains, in order. [ ]: non-standard residue; d: D form. Actinocin(9to1) = Cc1c2oc3c(C)ccc(C(=O)[*:1])c3nc-2c(C(=O)[*:2])c(N)c1=O; NMeV = CN[C@H](C(=O)O)C(C)C; Sar = CNCC(=O)O

In general, IC50 refers to the midpoint of a concentration-inhibition curve. For `Cc1c2oc3c(C)c(O)c(N)c(C(=O)N[C@@H]4C(=O)N[C@H](C(C)C)C(=O)N5CCC[C@H]5C(=O)N(C)CC(=O)N(C)[C@@H](C(C)C)C(=O)O[C@@H]4C)c3nc-2c(C(=O)N[C@@H]2C(=O)N[C@H](C(C)C)C(=O)N3CCC[C@H]3C(=O)N(C)CC(=O)N(C)[C@@H](C(C)C)C(=O)O[C@@H]2C)c(N)c1=O` [SAD (2)], the “therapeutic index MTD/MED” value in the data set on P388 Leukemia is reported as 96. The “MED (minimum effective dose), dose giving 45% increase in life span over control” value in the data set on P388 Leukemia was found to be 0.025 milligram/killogram. In data set [1], the “LD90, drug concentration producing 90% reduction in cell viability” value amounted to 0.1 µM. The IC50 in the data set on P388 cells (setting [5]) is 12 ± 4 nM; in the data set with P388 cells (setting [6]), 15 nM; in data set [4] (setting [5]) it was 70 ± 11 nM; in data set [4] (setting [6]) it was 55 ± 6 nM. Further, in data set [2], the “tumor free survivors/total on day 60” value is on record as 4/8. Moreover, in data set [2], the “effectiveness relative to AMD with respect to %ILS and long-time survivors” value was “two-to threefold”. Also, the “Percentage of closed circular pBR322 DNA cleaved” value (“Percentage” below) was 35% in data set [3], 50% in data set [3] (concn 25 M (so in the source)), 50% in data set [3] (concn 50 M (so in the source)) and 65% in data set [3] (concn 100 M (so in the source)).

With `Cc1c2oc3c(C)c4oc(-c5ccccc5)nc4c(C(=O)N[C@@H]4C(=O)N[C@H](C(C)C)C(=O)N5CCC[C@H]5C(=O)N(C)CC(=O)N(C)[C@@H](C(C)C)C(=O)O[C@@H]4C)c3nc-2c(C(=O)N[C@@H]2C(=O)N[C@H](C(C)C)C(=O)N3CCC[C@H]3C(=O)N(C)CC(=O)N(C)[C@@H](C(C)C)C(=O)O[C@@H]2C)c(N)c1=O` [RAD II (3b)], the “therapeutic index MTD/MED” value in the data set with P388 Leukemia came out at 67. Moreover, the “MED (minimum effective dose), dose giving 45% increase in life span over control” value with P388 Leukemia is 0.03 milligram/killogram. The “LD90, drug concentration producing 90% reduction in cell viability” value in data set [1] came to 0.2 µM. For the same molecule, the IC50 in the data set on P388 cells (setting [5]) amounted to 780 ± 66 nM; in the data set with P388 cells (setting [6]) it was 70 ± 5 nM; in data set [4] (setting [5]), 580 ± 55 nM; in data set [4] (setting [6]) it was 68 ± 10 nM. The “tumor free survivors/total on day 60” value in data set [2] is on record as 4/8. Also, the “effectiveness relative to AMD with respect to %ILS and long-time survivors” value in data set [2] was “two-to threefold”.

`Cc1c2oc3c(C)ccc(C(=O)N[C@@H]4C(=O)N[C@H](C(C)C)C(=O)N5CCC[C@H]5C(=O)N(C)CC(=O)N(C)[C@@H](C(C)C)C(=O)O[C@@H]4C)c3nc-2c(C(=O)N[C@@H]2C(=O)N[C@H](C(C)C)C(=O)N3CCC[C@H]3C(=O)N(C)CC(=O)N(C)[C@@H](C(C)C)C(=O)O[C@@H]2C)c(N)c1=O` [AMD (1), Actinomycin D] (I: T[dV]P[Sar][NMeV] / II: T[dV]P[Sar][NMeV]; ester I:1-I:C, II:1-II:C; linker I:N-II:N via Actinocin(9to1)): the “therapeutic index MTD/MED” value in the data set on P388 Leukemia is 4. In the data set with P388 Leukemia, the “MED (minimum effective dose), dose giving 45% increase in life span over control” value was determined as 0.0625 milligram/killogram. Further, the IC50 stood at 1100 ± 90 nM with P388 cells (setting [5]), 50 ± 5 nM with P388 cells (setting [6]), 900 ± 80 nM in data set [4] (setting [5]) and 100 ± 11 nM in data set [4] (setting [6]). Besides, the “tumor free survivors/total on day 60” value in data set [2] is 1/8. Also, in data set [3], the “DNA cleaving efficiency relative to RAD III (3c) and SAD (2)” value is reported as “about 30%”. For the same molecule, the “Percentage” value worked out at 10% in data set [3] and 22% in data set [3] (concn 100 M (so in the source)).

In the case of `Cc1c2oc3c(C)c4oc(CC(=O)NCCCCN)nc4c(C(=O)N[C@@H]4C(=O)N[C@H](C(C)C)C(=O)N5CCC[C@H]5C(=O)N(C)CC(=O)N(C)[C@@H](C(C)C)C(=O)O[C@@H]4C)c3nc-2c(C(=O)N[C@@H]2C(=O)N[C@H](C(C)C)C(=O)N3CCC[C@H]3C(=O)N(C)CC(=O)N(C)[C@@H](C(C)C)C(=O)O[C@@H]2C)c(N)c1=O` [RAD III (3c)], the “therapeutic index MTD/MED” value in the data set on P388 Leukemia turned out to be 70. In the data set on P388 Leukemia, the “MED (minimum effective dose), dose giving 45% increase in life span over control” value was found to be 0.05 milligram/killogram. For the same molecule, the “LD90, drug concentration producing 90% reduction in cell viability” value in data set [1] turned out to be 5.0 µM. Moreover, the IC50 with P388 cells (setting [5]) turned out to be 430 ± 38 nM; in the data set on P388 cells (setting [6]), 55 ± 7 nM; in data set [4] (setting [5]), 365 ± 45 nM; in data set [4] (setting [6]), 45 ± 8 nM. The “tumor free survivors/total on day 60” value in data set [2] is on record as 6/8. For the same molecule, the “effectiveness relative to AMD with respect to %ILS and long-time survivors” value in data set [2] is recorded as “two-to threefold”. The molecule further came in with a P388/S optimal dose in data set [2] (ip on days 1, 5, and 9) of 1.0 mg/kg. The “Percentage” value in data set [3] was determined as 40%; in data set [3] (concn 25 M (so in the source)), 45%; in data set [3] (concn 50 M (so in the source)), 50%; in data set [3] (concn 100 M (so in the source)), 58%.

The record behind these values is US4966962A, “Reverse analogue of actinomycin D” (Trustees of Boston University, priority 1988, dated 1990).
